Test results from patent publication US20230150980A1, “COLLAGEN 1 TRANSLATION INHIBITORS AND METHODS OF USE THEREOF” (Anima Biotech Inc., priority 2020, published 2023).
Counter-ions that a name gives are not always drawn.
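Further: minus sign means inactive.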

These compounds were tested on collagen 1 (assay: WI-38 collagen 1 inhibition assay (anti-Collagen I immunofluorescence)). Conditions: cellular EC50, WI-38 human lung fibroblasts, values are LogEC50 classes.
Assay type: cell-based
Method: WI-38 cells (ATCC® CCL-75™) were maintained in MEM EAGLE (NEAA) W. GLUTAMIN (Biological Industries, Cat. 06-1040-15-1A) containing 10% fetal bovine serum (FBS) and 1% Penicillin-Streptomycin Solution. To synchronize the cells (cell cycle synchronization) prior to induction of collagen synthesis, the cells were starved using DMEM-low glucose supplemented with 0.25% FBS for two hours and then without FBS for 24 hours. To induce collagen synthesis, the cells were treated with a collagen induction cocktail for the indicated time. Compounds were added with induction.
Cells in 96-well or 384-well plates were fixed for 20 min in 4% paraformaldehyde (PFA, ENCO, Cat. sc-281692). Following two washes with 1×PBS, cells were treated with hydrogen peroxide (Acros, Cat: 7722-84-1) for 10 minutes and then washed twice with 1×PBS. Cells were then incubated over-night at 4° C. with Anti-Collagen I (Sigma-Aldrich, Cat: C 2456) antibody and washed three times with 1×PBS. Cell were then incubated with a suitable secondary fluorescently-tagged antibody and nuclei stained with DAPI, for 1 hour, and then washed 3 times with 1×PBS.
Cell images were taken with Operetta (Perkin Elmer, USA), a wide-field fluorescence microscope at 20× magnification. After acquisition, the images were transferred to Columbus software (Perkin-Elmer) for image analysis. In Columbus, cells were identified by their nucleus, using the “Find Nuceli” module and cytoplasm was detected based on the secondary antibody channel. Subsequently, the fluorescent signal was enumerated in the identified cell region. Data was exported to a data analysis and visualization software, Tibco Spotfire, USA.
With `Brc1ccc2cc(CN3CCN(c4ccncc4)CC3)[nH]c2c1` [compound 224, 6-bromo-2-[[4-(4-pyridyl)piperazin-1-yl]methyl]-1H-indole] the “COL1 Efficacy (LogEC50)” value was “+ (+: >−5)”. With `FC(F)(F)c1ccc2[nH]c(CN3CCN(c4ccncc4)CC3)cc2c1` [compound 226, 2-[[4-(4-pyridyl)piperazin-1-yl]methyl]-5-(trifluoromethyl)-1H-indole] the “COL1 Efficacy (LogEC50)” value was “+ (+: >−5)”. For `COc1ccc2cc(CN3CCN(c4ccncc4)CC3)[nH]c2c1` [compound 228, 6-methoxy-2-[[4-(4-pyridyl)piperazin-1-yl]methyl]-1H-indole], the “COL1 Efficacy (LogEC50)” value was “+ (+: >−5)”. `c1ccc2[nH]c(CN3CCN(c4nccc5ccccc45)CC3)cc2c1` [compound 234] was tested, and the “COL1 Efficacy (LogEC50)” value was “+ (+: >−5)”. With `Clc1ccc2cc(CN3CCN(c4ccncc4)CC3)[nH]c2c1` [compound 240, 6-chloro-2-[[4-(4-pyridyl)piperazin-1-yl]methyl]-1H-indole] the “COL1 Efficacy (LogEC50)” value was “+ (+: >−5)”. With `c1ccc(N2CCN(Cc3cc4ccccc4[nH]3)CC2)cc1` [compound 241, 2-[(4-phenylpiperazin-1-yl)methyl]-1H-indole] the “COL1 Efficacy (LogEC50)” value was “++ (++: −5 to −6)”. For `c1ccc2[nH]c(CN3CCN(c4ccnc5[nH]ccc45)CC3)cc2c1` [compound 242, 4-[4-(1H-indol-2-ylmethyl)piperazin-1-yl]-1H-pyrrolo[2,3-b]pyridine], the “COL1 Efficacy (LogEC50)” value was “+ (+: >−5)”. In the case of `Clc1cccc2[nH]c(CN3CCN(c4ccncc4)CC3)cc12` [compound 243, 4-chloro-2-[[4-(4-pyridyl)piperazin-1-yl]methyl]-1H-indole], the “COL1 Efficacy (LogEC50)” value is reported as “−”. With `O=C(c1cc2ccccc2[nH]1)N1CCN(c2ccncc2)CC1` [compound 244, (1H-indol-2-yl)(4-(pyridin-4-yl)piperazin-1-yl)methanone] the “COL1 Efficacy (LogEC50)” value was “+ (+: >−5)”. With `Clc1ccc2[nH]c(CN3CCN(c4ccncc4)CC3)cc2c1` [compound 245, 5-chloro-2-[[4-(4-pyridyl)piperazin-1-yl]methyl]-1H-indole formate] the “COL1 Efficacy (LogEC50)” value was “−”. `Nc1ccc2[nH]c(CN3CCN(c4ccncc4)CC3)cc2c1` [compound 246, 2-[[4-(4-pyridyl)piperazin-1-yl]methyl]-1H-indol-5-amine] was tested, and the “COL1 Efficacy (LogEC50)” value was “++ (++: −5 to −6)”. For `Clc1cccc2cc(CN3CCN(c4ccncc4)CC3)[nH]c12` [compound 247, 7-chloro-2-[[4-(4-pyridyl)piperazin-1-yl]methyl]-1H-indole], the “COL1 Efficacy (LogEC50)” value was “+++ (+++: <−6)”. With `Clc1c(CN2CCN(c3ccncc3)CC2)[nH]c2ccccc12` [compound 248, 3-chloro-2-[[4-(4-pyridyl)piperazin-1-yl]methyl]-1H-indole] the “COL1 Efficacy (LogEC50)” value was “+++ (+++: <−6)”. For `O=C(Nc1ccc2[nH]c(CN3CCN(c4ccncc4)CC3)cc2c1)c1ccccc1` [compound 249, N-[2-[[4-(4-pyridyl)piperazin-1-yl]methyl]-1H-indol-5-yl]benzamide], the “COL1 Efficacy (LogEC50)” value was “+++ (+++: <−6)”. With `O=C(Nc1ccccc1)c1ccc2[nH]c(CN3CCN(c4ccncc4)CC3)cc2c1` [compound 250, N-phenyl-2-[[4-(4-pyridyl)piperazin-1-yl]methyl]-1H-indole-5-carboxamide] the “COL1 Efficacy (LogEC50)” value was “+ (+: >−5)”. With `CS(=O)(=O)Nc1ccc2[nH]c(CN3CCN(c4ccncc4)CC3)cc2c1` [compound 251, N-[2-[[4-(4-pyridyl)piperazin-1-yl]methyl]-1H-indol-5-yl]methanesulfonamide] the “COL1 Efficacy (LogEC50)” value was “+ (+: >−5)”. In the case of `Cc1ccc2[nH]c(CN3CCN(c4ccncc4)CC3)cc2c1` [compound 252, 5-methyl-2-[[4-(4-pyridyl)piperazin-1-yl]methyl]-1H-indole], the “COL1 Efficacy (LogEC50)” value is reported as “++ (++: −5 to −6)”. For `c1ccc2[nH]c(CN3CCN(c4ccncc4)CC3)nc2c1` [compound 253, 2-[[4-(4-pyridyl)piperazin-1-yl]methyl]-1H-benzimidazole], the “COL1 Efficacy (LogEC50)” value was “++ (++: −5 to −6)”. In the case of `Cc1ncnc(N2CCN(Cc3nc4ccccc4s3)CC2)c1C` [compound 254, 2-[[4-(5,6-dimethylpyrimidin-4-yl)piperazin-1-yl]methyl]-1,3-benzothiazole], the “COL1 Efficacy (LogEC50)” value is reported as “+++ (+++: <−6)”. For `FC(F)(F)c1ccc2cc(CN3CCN(c4ccncc4)CC3)[nH]c2c1` [compound 255, 2-[[4-(4-pyridyl)piperazin-1-yl]methyl]-6-(trifluoromethyl)-1H-indole], the “COL1 Efficacy (LogEC50)” value was “+++ (+++: <−6)”. `N#Cc1ccc2[nH]c(CN3CCN(c4ccncc4)CC3)cc2c1` [compound 256, 2-[[4-(4-pyridyl)piperazin-1-yl]methyl]-1H-indole-5-carbonitrile] was tested, and the “COL1 Efficacy (LogEC50)” value was “+++ (+++: <−6)”. For `Cc1ncnc(N2CCN(Cc3nc4ccccc4[nH]3)CC2)c1C` [compound 257, 2-[[4-(5,6-dimethylpyrimidin-4-yl)piperazin-1-yl]methyl]-1H-benzimidazole], the “COL1 Efficacy (LogEC50)” value was “++ (++: −5 to −6)”. `CC(=O)Nc1ccc2[nH]c(CN3CCN(c4ccncc4)CC3)cc2c1` [compound 258, N-[2-[[4-(4-pyridyl)piperazin-1-yl]methyl]-1H-indol-5-yl]acetamide] was tested, and the “COL1 Efficacy (LogEC50)” value was “++ (++: −5 to −6)”. With `Cc1ncnc(N2CCN(Cc3nc4ccccc4o3)CC2)c1C` [compound 259, 2-[[4-(5,6-dimethylpyrimidin-4-yl)piperazin-1-yl]methyl]-1,3-benzoxazole] the “COL1 Efficacy (LogEC50)” value was “+++ (+++: <−6)”. With `COCCOc1ccc2[nH]c(CN3CCN(c4ccncc4)CC3)cc2c1` [compound 260, 5-(2-methoxyethoxy)-2-[[4-(4-pyridyl)piperazin-1-yl]methyl]-1H-indole] the “COL1 Efficacy (LogEC50)” value was “++ (++: −5 to −6)”. `COCCOc1ccc2c(c1)cc(CN1CCN(c3ccncc3)CC1)n2CCOC` [compound 261, 5-(2-methoxyethoxy)-1-(2-methoxyethyl)-2-((4-(pyridin-4-yl)piperazin-1-yl)methyl)-1H-indole] was tested, and the “COL1 Efficacy (LogEC50)” value was “−”. With `c1cc(CN2CCN(c3ccncc3)CC2)c2[nH]ccc2c1` [compound 262, 7-[[4-(4-pyridyl)piperazin-1-yl]methyl]-1H-indole] the “COL1 Efficacy (LogEC50)” value was “−”. `c1cc(CN2CCN(c3ccncc3)CC2)c2cc[nH]c2c1` [compound 263, 4-[[4-(4-pyridyl)piperazin-1-yl]methyl]-1H-indole] was tested, and the “COL1 Efficacy (LogEC50)” value was “−”. For `c1cc(N2CCN(Cc3ccc4[nH]ccc4c3)CC2)ccn1` [compound 264, 5-[[4-(4-pyridyl)piperazin-1-yl]methyl]-1H-indole], the “COL1 Efficacy (LogEC50)” value was “−”. With `c1cc(N2CCN(Cc3ccc4cc[nH]c4c3)CC2)ccn1` [compound 265, 6-[[4-(4-pyridyl)piperazin-1-yl]methyl]-1H-indole] the “COL1 Efficacy (LogEC50)” value was “++ (++: −5 to −6)”. In the case of `Cc1cncnc1N1CCN(Cc2cc3ccccc3[nH]2)CC1` [compound 266, 2-[[4-(5-methylpyrimidin-4-yl)piperazin-1-yl]methyl]-1H-indole formate], the “COL1 Efficacy (LogEC50)” value is reported as “+ (+: >−5)”. For `OC1(c2ccncc2)CCN(Cc2cc3ccccc3[nH]2)CC1` [compound 267, 1-(1H-indol-2-ylmethyl)-4-(4-pyridyl)piperidin-4-ol], the “COL1 Efficacy (LogEC50)” value was “−”. `c1ccc2[nH]c(CN3CCC(Oc4ccncc4)CC3)cc2c1` [compound 268, 2-[[4-(4-pyridyloxy)-1-piperidyl]methyl]-1H-indole] was tested, and the “COL1 Efficacy (LogEC50)” value was “++ (++: −5 to −6)”. `c1ccc2[nH]c(CN3CCC(c4ccncc4)CC3)cc2c1` [compound 269, 2-[[4-(4-pyridyl)-1-piperidyl]methyl]-1H-indole] was tested, and the “COL1 Efficacy (LogEC50)” value was “−”. For `c1cc(N2CCN(Cc3cc4ccncc4[nH]3)CC2)ccn1` [compound 270, 2-[[4-(4-pyridyl)piperazin-1-yl]methyl]-1H-pyrrolo[2,3-c]pyridine], the “COL1 Efficacy (LogEC50)” value was “−”. For `c1ccc2[nH]c(CN3CC4(C3)CN(c3ccncc3)C4)cc2c1` [compound 271, 2-[[2-(4-pyridyl)-2,6-diazaspiro[3.3]heptan-6-yl]methyl]-1H-indole], the “COL1 Efficacy (LogEC50)” value was “−”. For `c1ccc2[nH]c(CN3CCC4(CCN(c5ccncc5)C4)C3)cc2c1` (stereo not drawn) [compound 272, 7-(1H-indol-2-ylmethyl)-2-(4-pyridyl)-2,7-diazaspiro[4.4]nonane], the “COL1 Efficacy (LogEC50)” value was “−”. With `c1ccc2[nH]c(CN3CCCN(c4ccncc4)CC3)cc2c1` [compound 273, 2-[[4-(4-pyridyl)-1,4-diazepan-1-yl]methyl]-1H-indole] the “COL1 Efficacy (LogEC50)” value was “−”. For `c1ccn2cc(CN3CCN(c4ccncc4)CC3)nc2c1` [compound 274, 2-[[4-(4-pyridyl)piperazin-1-yl]methyl]imidazo[1,2-a]pyridine], the “COL1 Efficacy (LogEC50)” value was “−”. In the case of `c1cnc2[nH]c(CN3CCN(c4ccncc4)CC3)cc2c1` [compound 275, 2-[[4-(4-pyridyl)piperazin-1-yl]methyl]-1H-pyrrolo[2,3-b]pyridine], the “COL1 Efficacy (LogEC50)” value is reported as “−”. `C[C@@H]1CN(Cc2cc3ccccc3[nH]2)C[C@H](C)N1c1ccncc1` [compound 276, 2-[[(3S,5R)-3,5-dimethyl-4-(4-pyridyl)piperazin-1-yl]methyl]-1H-indole] was tested, and the “COL1 Efficacy (LogEC50)” value was “−”. In the case of `c1ccc2c(CN3CCN(c4ccncc4)CC3)c[nH]c2c1` [compound 277, 3-((4-(pyridin-4-yl)piperazin-1-yl)methyl)-1H-indole bis 2,2,2-trifluoroacetate], the “COL1 Efficacy (LogEC50)” value is reported as “−”.
